This is an account of results in PubChem BioAssay (NCI).

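Protocol summary: plate cells (96-well), add compound at 5 concentrations, incubate 48 h, interpolate endpoints linearly. Abbreviation: GI50, concentration required for 50% inhibition of growth. TGI is the concentration that stops growth completely.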

What all share (assay): growth of human tumour cells (NCI), 48 h
The subject of assay [1] is HL-60(TB) leukemia.
In assay [2] the test system is MDA-MB-231 breast.
In assay [3] the test system is NCI-H522 lung.
Assay [4] deals with NCI/ADR-RES ovarian.
In assay [5] the test system is SK-OV-3 ovarian.
Assay [6] has as its system SNB-19 CNS.
The subject of assay [7] is SR leukemia.
In assay [8] the test system is UACC-257 melanoma.

As to `Cc1cc(=O)oc2c(CNC(CC(C)C)C(=O)O)c(O)ccc12` (stereo not drawn), the TGI in assay [1], in assay [2], in assay [3], in assay [4], in assay [5] and in assay [6] was more than 100 µM in each case. The TGI in assay [7] and in assay [8] was more than 100 µM in each case.
Regarding `NC(=O)Oc1ccccc1`, the TGI in assay [1], in assay [2], in assay [3], in assay [4], in assay [5] and in assay [6] was more than 100 µM each time. Also, the TGI in assay [7] and in assay [8] was more than 100 µM throughout.
Regarding `O=C(NCCCCCN1CCC2(CCCCC2)CC1)C(C1CCCCC1)C1CCCCC1`, the TGI in assay [1] was 3.62 µM; in assay [2], 10.8 µM; in assay [3], 9.01 µM; in assay [4], 14.9 µM; in assay [5], 15.1 µM; in assay [6], 12.5 µM. Further, the TGI amounted to 4.17 µM in assay [7] and 3.43 µM in assay [8].
As for `O=P(O)(O)CN1CCNCCN(CP(=O)(O)O)CC1`, the TGI was 18.2 µM in assay [1]; more than 100 µM in assay [2]; more than 100 µM in assay [3]; more than 44.9 µM in assay [4]; more than 100 µM in assay [5]; more than 100 µM in assay [6]. Besides, the TGI in assay [7] is more than 90.6 µM; in assay [8], more than 100 µM.
With `COc1ccc(C2=NC(c3ccc(Cl)cc3)C(c3ccc(Cl)cc3)N2C(=O)N2CCNC(=O)C2)c(OC(C)C)c1` (stereo not drawn), the GI50 is 3.62 µM in assay [1]; 1.98 µM in assay [2]; 2.09 µM in assay [3]; 1.92 µM in assay [4]; 2.27 µM in assay [5]; 2.08 µM in assay [6]. Also, the GI50 is 2.33 µM in assay [7] and 2.64 µM in assay [8]. Besides, the TGI is more than 10 µM in assay [1]; 3.89 µM in assay [2]; 4.09 µM in assay [3]; 3.83 µM in assay [4]; 4.31 µM in assay [5]; 4.91 µM in assay [6]. Also, the TGI was determined as 5.89 µM in assay [7] and 4.84 µM in assay [8].
Turning to `Cc1ccc(NC(=O)CC(=O)n2nc(C)c(N=Nc3cccc(C)c3)c2C)cc1`, the TGI in assay [1], in assay [2], in assay [3], in assay [4], in assay [5] and in assay [6] was more than 100 µM each time. The TGI in assay [7] and in assay [8] was more than 100 µM throughout.
In the case of `CC1(C)CC(=O)C2=C(C1)OC1(CC2c2ccc(Cl)cc2)CC(c2ccc(Cl)cc2)C2=C(CC(C)(C)CC2=O)O1` (stereo not drawn), the TGI in assay [1] is 24.1 µM; in assay [2] it was 50.3 µM; in assay [3], 27.6 µM; in assay [4], more than 73.3 µM; in assay [5], 29.4 µM; in assay [6], 54.6 µM. Moreover, the TGI in assay [7] is 87.2 µM; in assay [8] it was more than 61.7 µM.
As to `O=S(=O)(O)c1ccc2c(N=Nc3ccc(Sc4ccc(N=Nc5c(O)ccc6cc(S(=O)(=O)O)ccc56)cc4)cc3)c(O)ccc2c1`, the TGI in assay [1], in assay [2], in assay [3], in assay [4], in assay [5] and in assay [6] was more than 100 µM in each case. Moreover, the TGI in assay [7] and in assay [8] was more than 100 µM each time.
Consider `Cc1csc(-n2c(C)nc3cc(Cl)ccc3c2=O)n1`, for which the TGI is more than 100 µM in assay [1]; more than 100 µM in assay [2]; 60.6 µM in assay [3]; more than 100 µM in assay [4]; more than 100 µM in assay [5]; more than 100 µM in assay [6]. In addition, the TGI in assay [7] and in assay [8] was more than 100 µM in each case.
Take `CC[C@@]1(O)C(=O)OCc2c1cc1n(c2=O)Cc2c-1nc1ccccc1c2/C=N\NC(=O)C(N)Cc1c[nH]c2ccccc12` (stereo partly drawn): the TGI in assay [1] is 12.1 µM; in assay [2] it was more than 100 µM; in assay [3], 32.3 µM; in assay [4] it was more than 35.6 µM; in assay [5], more than 84 µM; in assay [6], 1.74 µM. Further, the TGI in assay [7] was 1.19 µM; in assay [8], more than 38 µM.
Take `CC(C)NC(=O)OCc1c(COC(=O)NC(C)C)c(-c2cc[n+](COC(=O)C3CCCCC3)cc2)n2c1CCC2`: the TGI in assay [1], in assay [2], in assay [3], in assay [4], in assay [5] and in assay [6] was more than 100 µM each time. Moreover, the TGI in assay [7] and in assay [8] was more than 100 µM each time.
With `CCCCC[C@H]1CCCCCCCCCC(=O)OC2C(O[C@@H]3OC(C)[C@H](OC(=O)[C@@H](C)CC)C(O[C@@H]4OC(C)[C@H](O)C(O)[C@@H]4O)[C@@H]3OC(=O)[C@H](C)CC)[C@H](OC3C(O)[C@@H](O)C(C)O[C@H]3O1)OC(CO)[C@H]2O` (stereo partly drawn), the TGI in assay [1] came to 35.9 µM; in assay [2] it was 30.7 µM; in assay [3] it was 34.2 µM; in assay [4], 36.9 µM; in assay [5] it was 29.3 µM; in assay [6] it was 32.1 µM. Also, the TGI in assay [7] is 34.7 µM; in assay [8], 29.2 µM.
`O=C(N/N=C\c1ccc([N+](=O)[O-])s1)c1ccncc1`: the TGI was more than 22.7 µM in assay [1]; more than 89.1 µM in assay [2]; 19.7 µM in assay [3]; more than 91.1 µM in assay [4]; more than 100 µM in assay [5]; more than 77.4 µM in assay [6]. For the same molecule, the results for the TGI in assay [7] and in assay [8] were 12.2 µM and 31.8 µM, respectively.
In the case of `Cc1ccc(/C=C2\N=C(N3CCCC(CO)C3)NC2=O)cc1` (stereo not drawn), the TGI in assay [1], in assay [2], in assay [3], in assay [4], in assay [5] and in assay [6] was more than 100 µM throughout. The TGI in assay [7] and in assay [8] was more than 100 µM throughout.
Take `CCOC(=O)C1=C(C)N(Cc2ccccc2)C2(O)C=CC(=O)C3=C(O)c4ccccc4C(=O)C312` (stereo not drawn): the TGI was 42.1 µM in assay [1]; 37.8 µM in assay [2]; 27.2 µM in assay [3]; 0.708 µM in assay [4]; more than 100 µM in assay [5]; 88.7 µM in assay [6]. The TGI in assay [7] turned out to be 14.1 µM; in assay [8] it was 32.6 µM.
